Experimental data from ChEMBL document CHEMBL1795317, “Synthesis and antitubercular evaluation of amidoalkyl dibenzofuranols and 1H-benzo[2,3]benzofuro[4,5-e][1,3]oxazin-3(2H)-ones” (Bioorg Med Chem Lett, 2011).
Values after ≈ are worked out from the molar mass of the structure shown.

Columns and labels:
[1] = system: Mycobacterium tuberculosis; experiment: Antimicrobial activity against Mycobacterium tuberculosis H37Rv ATCC 27294 after 28 days by agar dilution method; type: functional; settings: H37Rv ATCC 27294, 672 h
[2] = Lipophilicity, log P of the compound; type: physicochemical; settings: octanol/water

| Structure (SMILES) | MIC [1] [µg/mL] | logP [2] |
| --- | --- | --- |
| NC(=O)c1cnccn1 [PYRAZINAMIDE] | 50 (≈ 406 µM) | – |
| NC(=O)NC(c1ccc(Cl)cc1)c1c(O)ccc2oc3ccccc3c12 (stereo not given) | 3.13 (≈ 8.53 µM) | 3.23 |
| COc1cc(C(NC(C)=O)c2c(O)ccc3oc4ccccc4c23)cc(OC)c1OC (stereo not given) | 12.5 (≈ 29.7 µM) | 2.62 |
| NNC(=O)c1ccncc1 [ISONIAZID] | 0.1 (≈ 0.729 µM) | – |
| CC(=O)NC(c1ccc(Cl)cc1)c1c(O)ccc2oc3ccccc3c12 (stereo not given) | 6.25 (≈ 17.1 µM) | 3.56 |
| O=C1NC(c2ccccc2)c2c(ccc3oc4ccccc4c23)O1 (stereo not given) | 3.13 (≈ 9.93 µM) | 3.61 |
| NC(=O)NC(c1ccc(Br)cc1)c1c(O)ccc2oc3ccccc3c12 (stereo not given) | 3.13 (≈ 7.61 µM) | 3.5 |
| CC(=O)NC(c1ccc(Br)cc1)c1c(O)ccc2oc3ccccc3c12 (stereo not given) | 6.25 (≈ 15.2 µM) | 3.83 |
| CC(=O)NC(c1ccccc1)c1c(O)ccc2oc3ccccc3c12 (stereo not given) | 6.25 (≈ 18.9 µM) | 3 |
| COc1ccc(C(NC(C)=O)c2c(O)ccc3oc4ccccc4c23)cc1 (stereo not given) | 6.25 (≈ 17.3 µM) | 2.87 |
| COc1cc(C(NC(N)=O)c2c(O)ccc3oc4ccccc4c23)cc(OC)c1OC (stereo not given) | 12.5 (≈ 29.6 µM) | 2.29 |
| O=C(NC(c1ccc(Cl)cc1)c1c(O)ccc2oc3ccccc3c12)c1ccccc1 (stereo not given) | 12.5 (≈ 29.2 µM) | 5.46 |
| O=C1NC(c2ccc(Cl)cc2)c2c(ccc3oc4ccccc4c23)O1 (stereo not given) | 1.56 (≈ 4.46 µM) | 4.16 |
| O=C1NC(c2ccc(Br)cc2)c2c(ccc3oc4ccccc4c23)O1 (stereo not given) | 1.56 (≈ 3.96 µM) | 4.43 |
| COc1ccc(C(NC(N)=O)c2c(O)ccc3oc4ccccc4c23)cc1 (stereo not given) | 6.25 (≈ 17.2 µM) | 2.55 |
| COc1cc(C2NC(=O)Oc3ccc4oc5ccccc5c4c32)cc(OC)c1OC (stereo not given) | 12.5 (≈ 30.8 µM) | 3.23 |
| CC[C@@H](CO)NCCN[C@@H](CC)CO [ETHAMBUTOL] | 3.13 (≈ 15.3 µM) | – |
| COc1cc(C(NC(=O)c2ccccc2)c2c(O)ccc3oc4ccccc4c23)cc(OC)c1OC (stereo not given) | 12.5 (≈ 25.9 µM) | 4.52 |
| COc1ccc(C2NC(=O)Oc3ccc4oc5ccccc5c4c32)cc1 (stereo not given) | 6.25 (≈ 18.1 µM) | 3.48 |
